# The PolyMetriX glass transition set
# ± gives the standard deviation of the reports.
row,SMILES,glass transition temperature [°C]
1,*c1ccc(Oc2cccc(Oc3ccc(N4C(=O)c5ccc(-c6cccc7c6C(=O)N(*)C7=O)cc5C4=O)cc3)c2)cc1 (repeat unit),248.00 ± 25
2,*CC(*)C(=O)OC(C(F)(F)F)C(F)(F)F (repeat unit),42.30
3,*CC(*)CNc1ccc([N+](=O)[O-])c(C(F)(F)F)c1 (repeat unit),153.00
4,*Oc1ccc(C2(c3ccc(OC(=O)CCCCC(*)=O)cc3)c3ccccc3-c3ccccc32)cc1 (repeat unit),166.00
5,*CCOC(=O)Cc1ccc(C(=O)O*)cc1 (repeat unit),24.00
6,*CCCCCCCCOc1cccc(NC(=O)c2cccc(C(=O)Nc3cccc(O*)c3)c2)c1 (repeat unit),117.00
7,*Oc1cccc(Oc2cccc(NC(=O)c3cccc(Oc4cccc(Oc5cccc(C(=O)Nc6cccc(*)c6)c5)c4)c3)c2)c1 (repeat unit),137.50
8,*Oc1ccc(SSc2ccc(*)cc2)cc1 (repeat unit),76.80
9,*Oc1ccc(S(=O)(=O)c2ccc(Oc3c(C)cc(C(c4cc(C)c(*)c(C)c4)(C(F)(F)F)C(F)(F)F)cc3C)cc2)cc1 (repeat unit),248.00
10,*CC(*)c1ccccc1C(=O)OCCN(C)C (repeat unit),69.00
11,*CC(*)(C)C(=O)Oc1ccc(/N=N/c2ccc(OCCCCCCCCCCCOC(=O)c3ccc4c(c3)OCCOCCOCCOCCO4)cc2)cc1 (repeat unit),19.00
12,*OC(=O)c1ccc(C(=O)OC2COC3C(*)COC23)cc1 (repeat unit),255.50
13,*CCCCCCCCCCCCC(c1ccc(O)cc1)C(*)c1ccc(O)cc1C (repeat unit),-1.00
14,*CCCCSS* (repeat unit),-55.00
15,*CCCOC(=O)C1CCC(C(=O)O*)CC1 (repeat unit),-6.00
16,*CC1CC2CC1C1CCC(CN3C(=O)c4ccc(Oc5ccc6c(c5)C(=O)N(*)C6=O)cc4C3=O)C21 (repeat unit),201.00
17,*Oc1c(C)cc(C(C)(C)c2cc(C)c(OC(=O)CCCCC(*)=O)c(C)c2)cc1C (repeat unit),93.00
18,*c1ccc(-c2ccc(NC(=O)c3cccc(C(=O)Nc4ccc(-c5ccc(N6C(=O)c7ccc(Oc8ccc9c(c8)C(=O)N(*)C9=O)cc7C6=O)cc5)cc4)c3)cc2)cc1 (repeat unit),233.00
19,*CCCCCOCO* (repeat unit),-80.00
20,*Nc1cc([N+](=O)[O-])c(NC(=O)CCCCC(*)=O)cc1/C=C/c1ccc(N(C)C)cc1 (repeat unit),206.00
21,*CCOC(=O)CCCCC(=O)OCCOC(=O)c1ccc(C(=O)O*)cc1 (repeat unit),8.00
22,*CC(*)c1ccccc1COCCc1ccccc1 (repeat unit),63.00

row,SMILES,glass transition temperature [°C]
1,*NNC(=O)/C=C/C(=O)Nc1cccc(/C=C2\CCC/C(=C\c3cccc(NC(=O)/C=C/C(*)=O)c3)C2=O)c1 (repeat unit),238.40
2,*c1cc(Br)c(-c2c(Br)cc(N3C(=O)c4ccc(-c5ccc6c(c5)C(=O)N(*)C6=O)cc4C3=O)cc2C(=O)OCCCCCCCCCC)c(C(=O)OCCCCCCCCCC)c1 (repeat unit),116.00
3,*c1ccc2c(c1)C(=O)N(c1ccc(C3(c4ccc(N5C(=O)c6ccc(C(*)(C(F)(F)F)C(F)(F)F)cc6C5=O)cc4)c4ccccc4-c4ccccc43)cc1)C2=O (repeat unit),370.00
4,*c1ccc(Oc2ccc(-c3cnnc(-c4cccc(-c5ncc(*)nn5)n4)n3)cc2)cc1 (repeat unit),223.00
5,*Oc1ccc(C(=O)c2ccc(Oc3ccc(C4(c5ccc(*)cc5)c5ccccc5-c5ccccc54)cc3)cc2)c2ccccc12 (repeat unit),260.00
6,*Oc1ccc(OC(=O)c2ccc(OCCCCCCOc3ccc(C(*)=O)cc3)cc2)cc1S(=O)(=O)c1ccccc1 (repeat unit),105.50
7,*Oc1c(OC)cc(-c2cc(OC)c(OC(=O)c3cccc(C(*)=O)c3)c(OC)c2)cc1OC (repeat unit),252.00
8,*c1ccc(Oc2ccc(C(=O)c3ccc(C(=O)c4ccc(Oc5ccc(-c6nc(-c7ccc(-c8nc(*)c(-c9ccccc9)[nH]8)cc7)[nH]c6-c6ccccc6)cc5)cc4)cc3)cc2)cc1 (repeat unit),278.00
9,*CC(O)COc1ccc(C(C)(C)c2ccc(OCC(O)CN3CCN(*)CC3)cc2)cc1 (repeat unit),100.00
10,*c1ccc2oc(-c3ccc(-c4nc5cc(C(*)(C(F)(F)F)C(F)(F)F)ccc5o4)cn3)nc2c1 (repeat unit),352.00
11,*c1cccc(Oc2cccc(N3C(=O)c4ccc(Oc5ccc6c(c5)C(=O)N(*)C6=O)cc4C3=O)c2)c1 (repeat unit),206.00 ± 1.4
12,*ON(C(F)(F)F)C(F)(F)C(*)(F)SC(F)(F)F (repeat unit),-48.00
13,*OS(=O)(=O)c1cccc(S(=O)(=O)Oc2ccc(C(C)(CC)c3ccc(*)cc3)cc2)c1 (repeat unit),147.00
14,*CCOC(=O)c1cccc(C(=O)O*)c1 (repeat unit),58.00
15,*CC(*)(C)C(=O)OC(C)C(C)(C)C (repeat unit),108.00
16,*CC(*)(C)C(=O)OC1CCOCC1 (repeat unit),153.50
17,*c1cc(CCOc2ccc(/N=N/c3ccc(C#N)cc3)cc2)c(*)s1 (repeat unit),73.00
18,*/C=C/C1CC(*)C2C(=O)N(CCCCCCCC)C(=O)C12 (repeat unit),56.50
19,*CCOC(=O)c1ccc2ccc(C(=O)O*)cc2c1 (repeat unit),119.00
20,*Cc1ccc(C(C)(C)c2ccc(Cn3c(=O)c4cc5c(=O)n(*)c(=O)c5cc4c3=O)o2)o1 (repeat unit),138.00
21,*Oc1ccc(S(=O)(=O)c2ccc(Oc3ccc(-c4ccc(*)cc4)cc3)cc2)cc1 (repeat unit),221.00
22,*c1cccc(P(=O)(c2ccccc2)c2cccc(N3C(=O)c4ccc(NC(=O)OCCOc5ccc(C(c6ccc(OCCOC(=O)Nc7ccc8c(c7)C(=O)N(*)C8=O)cc6)(C(F)(F)F)C(F)(F)F)cc5)cc4C3=O)c2)c1 (repeat unit),214.00

row,SMILES,glass transition temperature [°C]
1,*C(=O)Nc1ccc(-c2sc(-c3ccc(NC(=O)c4ccc5c(c4)C(=O)N(c4ccc(Oc6cccc7c(Oc8ccc(N9C(=O)c%10ccc(*)cc%10C9=O)cc8)cccc67)cc4)C5=O)cc3)c(-c3ccccc3)c2-c2ccccc2)cc1 (repeat unit),340.00
2,*CCCCCCCCOc1c(OC)cc(/C=C/c2ccc(/C=C/c3cc(OC)c(O*)c(OC)c3)cc2)cc1OC (repeat unit),69.40
3,*CCNC(=O)c1ccc(C(=O)N*)c(Oc2ccccc2)c1 (repeat unit),164.00
4,*CCC(C)(C)CC(C)COC(=O)CCCCC(=O)O* (repeat unit),-70.00
5,*c1ccc(NC2CC(=O)N(c3ccc(Cc4ccc(N5C(=O)CC(Nc6ccc(-c7nc(-c8ccc(/N=N/c9ccc([N+](=O)[O-])cc9)cc8)[nH]c7*)cc6)C5=O)cc4)cc3)C2=O)cc1 (repeat unit),258.00
6,*CCOCCOCCOc1ccc(/C=C/c2cc(OC)c(/C=C/c3ccc(O*)c4ccccc34)cc2OC)c2ccccc12 (repeat unit),79.50
7,*CC(c1ccccc1)C1C(=O)N(CCCCNC(=O)C(F)(F)C(F)(F)C(F)(F)C(F)(F)C(F)(F)C(F)(F)C(F)(F)F)C(=O)C1* (repeat unit),113.00
8,*c1ccc(Oc2ccc(-c3nc4ccc(-c5ccc6nc(*)c(-c7ccccc7)nc6c5)cc4nc3-c3ccccc3)cc2)cc1 (repeat unit),306.00
9,*CCCCCCCCCCCN1C(=O)c2ccc(C(=O)Oc3ccc(-c4ccc(OC(=O)c5ccc6c(c5)C(=O)N(*)C6=O)cc4)cc3)cc2C1=O (repeat unit),97.00
10,*O[Si](*)(C)CCCCCCOc1ccc(C(=O)Oc2ccc(C(=O)Oc3ccc(C=C(C(=O)OCCCCCCCCC)C(=O)OCCCCCCCCC)cc3)cc2)cc1 (repeat unit),-5.00
11,*CCCCCCCC(=O)OC1COC(*)OC1 (repeat unit),6.50
12,*c1ccc(C(c2ccccc2)(c2ccc(-c3nc4ccc(-c5ccc6nc(*)oc6c5)cc4o3)cc2)C(F)(F)F)cc1 (repeat unit),350.00
13,*Oc1ccc(C(=O)c2ccccc2)c(-c2cc(Oc3ccc(C(C)(C)c4ccc(*)cc4)cc3)ccc2C(=O)c2ccccc2)c1 (repeat unit),156.00
14,*c1ccc(Oc2ccc(Oc3ccc(N4C(=O)c5ccc(Oc6ccc7c(c6)C(=O)N(*)C7=O)cc5C4=O)cc3)cc2)cc1 (repeat unit),247.50 ± 6.6
15,*CC(*)c1ccccc1COCCC(C)C (repeat unit),78.00
16,*C(=O)c1ccc2c(c1)C(=O)N(c1ccc(Oc3ccccc3Oc3ccc(N4C(=O)c5ccc(*)cc5C4=O)cc3C(F)(F)F)c(C(F)(F)F)c1)C2=O (repeat unit),236.00
17,*c1cccc(S(=O)(=O)c2cccc(N3C(=O)c4ccc(Oc5ccc(Sc6ccc(Oc7ccc8c(c7)C(=O)N(*)C8=O)cc6)cc5)cc4C3=O)c2)c1 (repeat unit),231.00
18,*CC(*)(C)C(=O)OCCCCOc1ccc(OC(=O)c2ccc(OCCCCCCCC)cc2)cc1 (repeat unit),10.00
19,*CC(*)c1ccc(C(=O)OCCC)cc1 (repeat unit),92.00
20,*CCCCCCOC(=O)C(CCCCCCP(=O)(O)O)C(=O)OCCCCCCOc1ccc(-n2on2-c2ccc(O*)cc2)cc1 (repeat unit),21.00
21,*Oc1ccc(S(=O)(=O)c2ccc(Oc3ccc(C(C)(c4ccc(*)cc4)c4ccc(O)cc4)cc3)cc2)cc1 (repeat unit),228.00
22,*c1cccc(N2C(=O)C(=O)N(c3ccc(Cc4ccc(N5C(=O)C(=O)N(*)C5=O)cc4)cc3)C2=O)n1 (repeat unit),237.00
